Reference: paper PMC10176470, “Engaging a Non-catalytic Cysteine Residue Drives Potent and Selective Inhibition of Caspase-6” (Journal of the American Chemical Society, 2023)

Assays:
Format in all cases: cell-based
[1] = molecular target: proteins of HEK293T cells transiently overexpressing caspase-6 (Homo sapiens, UniProt P07900); settings: exp_ref Probe; protein HSP90AA1 (P07900); analysis C6
[2] = molecular target: proteins of HEK293T cells transiently overexpressing caspase-6 (Homo sapiens, UniProt P09874); settings: protein PARP1 (P09874)
[3] = molecular target: proteins of HEK293T cells transiently overexpressing caspase-6 (Homo sapiens, UniProt P20700); settings: exp_ref Probe; protein LMNB1 (P20700); analysis C6
[4] = molecular target: proteins of HEK293T cells transiently overexpressing caspase-6 (Homo sapiens, UniProt P21796); settings: Probe; protein VDAC1 P21796
[5] = molecular target: proteins of HEK293T cells transiently overexpressing caspase-6 (Homo sapiens, UniProt P27348); settings: exp_ref Probe; protein YWHAQ (P27348); analysis C6
[6] = molecular target: proteins of HEK293T cells transiently overexpressing caspase-6 (Homo sapiens, UniProt P28838); settings: exp_ref Probe; protein LAP3 (P28838); analysis C6
[7] = molecular target: T1, proteins of HEK293T cells transiently overexpressing caspase-6 (Homo sapiens, UniProt P40926); settings: protein MDH2 (P40926)
T1 sequence (P40926 25-338): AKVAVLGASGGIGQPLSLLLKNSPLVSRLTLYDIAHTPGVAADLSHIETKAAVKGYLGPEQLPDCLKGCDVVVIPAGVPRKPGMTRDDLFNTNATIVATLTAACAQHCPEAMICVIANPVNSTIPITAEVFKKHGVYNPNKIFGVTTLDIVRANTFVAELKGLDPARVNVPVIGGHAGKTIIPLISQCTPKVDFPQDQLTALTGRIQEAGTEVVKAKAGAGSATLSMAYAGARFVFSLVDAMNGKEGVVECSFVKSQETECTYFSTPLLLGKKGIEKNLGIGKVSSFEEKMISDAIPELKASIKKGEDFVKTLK

[8] = molecular target: proteins of HEK293T cells transiently overexpressing caspase-6 (Homo sapiens, UniProt P43487); settings: exp_ref Probe; protein RANBP1 (P43487); analysis C6
[9] = molecular target: T2, proteins of HEK293T cells transiently overexpressing caspase-6 (Homo sapiens, UniProt P54136); settings: exp_ref Probe; protein RARS (P54136); analysis C6
T2 sequence (P54136 1-660): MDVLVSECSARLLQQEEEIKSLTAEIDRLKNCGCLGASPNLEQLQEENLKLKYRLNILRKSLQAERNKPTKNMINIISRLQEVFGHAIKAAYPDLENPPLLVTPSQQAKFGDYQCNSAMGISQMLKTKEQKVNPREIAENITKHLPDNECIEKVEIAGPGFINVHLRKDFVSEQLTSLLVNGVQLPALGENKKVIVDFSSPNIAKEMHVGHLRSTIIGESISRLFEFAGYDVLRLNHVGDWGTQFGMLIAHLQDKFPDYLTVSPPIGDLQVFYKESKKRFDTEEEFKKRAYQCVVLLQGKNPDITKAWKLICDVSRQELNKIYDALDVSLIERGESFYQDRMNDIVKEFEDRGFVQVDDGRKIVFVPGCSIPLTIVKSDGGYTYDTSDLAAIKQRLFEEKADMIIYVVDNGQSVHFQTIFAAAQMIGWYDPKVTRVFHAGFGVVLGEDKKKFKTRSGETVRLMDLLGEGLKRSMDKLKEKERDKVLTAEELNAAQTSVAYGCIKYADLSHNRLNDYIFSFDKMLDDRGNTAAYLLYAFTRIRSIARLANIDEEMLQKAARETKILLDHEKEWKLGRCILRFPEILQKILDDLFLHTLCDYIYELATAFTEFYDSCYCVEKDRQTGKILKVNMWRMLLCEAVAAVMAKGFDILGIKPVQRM

[10] = molecular target: proteins of HEK293T cells transiently overexpressing caspase-6 (Homo sapiens, UniProt P61978); settings: protein HNRNPK (P61978)
[11] = molecular target: proteins of HEK293T cells transiently overexpressing caspase-6 (Homo sapiens, UniProt P61981); settings: Probe; protein YWHAG P61981
[12] = molecular target: T3, proteins of HEK293T cells transiently overexpressing caspase-6 (Homo sapiens, UniProt P62258); settings: protein YWHAE (P62258)
T3 sequence (P62258 1-255): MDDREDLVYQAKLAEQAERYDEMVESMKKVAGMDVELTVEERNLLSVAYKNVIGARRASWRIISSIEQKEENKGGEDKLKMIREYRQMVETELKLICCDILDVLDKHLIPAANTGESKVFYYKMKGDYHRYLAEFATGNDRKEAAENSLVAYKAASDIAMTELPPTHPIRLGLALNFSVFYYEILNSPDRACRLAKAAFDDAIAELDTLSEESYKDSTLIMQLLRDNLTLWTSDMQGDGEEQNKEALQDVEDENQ

[13] = molecular target: proteins of HEK293T cells transiently overexpressing caspase-6 (Homo sapiens, UniProt P63244); settings: exp_ref Probe; protein GNB2L1 (P63244); analysis C6
[14] = molecular target: proteins of HEK293T cells transiently overexpressing caspase-6 (Homo sapiens, UniProt P78371); settings: exp_ref Probe; protein CCT2 (P78371); analysis C6
[15] = molecular target: proteins of HEK293T cells transiently overexpressing caspase-6 (Homo sapiens, UniProt Q00839); settings: protein HNRNPU (Q00839)
[16] = molecular target: proteins of HEK293T cells transiently overexpressing caspase-6 (Homo sapiens, UniProt Q9Y265); settings: Probe; protein RUVBL1 Q9Y265
Chain of proteins of HEK293T cells transiently overexpressing caspase-6 (Homo sapiens, UniProt Q9Y265) (Q9Y265 whole entry): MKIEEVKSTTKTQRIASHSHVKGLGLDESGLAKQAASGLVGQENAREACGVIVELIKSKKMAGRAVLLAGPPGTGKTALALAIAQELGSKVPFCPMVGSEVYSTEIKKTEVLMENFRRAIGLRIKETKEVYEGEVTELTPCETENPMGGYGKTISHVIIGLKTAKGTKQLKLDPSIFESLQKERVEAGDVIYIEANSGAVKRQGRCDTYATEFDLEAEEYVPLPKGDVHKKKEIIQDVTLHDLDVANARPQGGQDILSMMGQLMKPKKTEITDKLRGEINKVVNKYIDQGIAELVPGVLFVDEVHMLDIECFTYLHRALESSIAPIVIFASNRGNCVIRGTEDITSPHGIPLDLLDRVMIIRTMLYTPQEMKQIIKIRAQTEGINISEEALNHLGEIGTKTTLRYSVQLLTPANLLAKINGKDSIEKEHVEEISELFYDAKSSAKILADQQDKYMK

Chain of proteins of HEK293T cells transiently overexpressing caspase-6 (Homo sapiens, UniProt P09874) (P09874 whole entry): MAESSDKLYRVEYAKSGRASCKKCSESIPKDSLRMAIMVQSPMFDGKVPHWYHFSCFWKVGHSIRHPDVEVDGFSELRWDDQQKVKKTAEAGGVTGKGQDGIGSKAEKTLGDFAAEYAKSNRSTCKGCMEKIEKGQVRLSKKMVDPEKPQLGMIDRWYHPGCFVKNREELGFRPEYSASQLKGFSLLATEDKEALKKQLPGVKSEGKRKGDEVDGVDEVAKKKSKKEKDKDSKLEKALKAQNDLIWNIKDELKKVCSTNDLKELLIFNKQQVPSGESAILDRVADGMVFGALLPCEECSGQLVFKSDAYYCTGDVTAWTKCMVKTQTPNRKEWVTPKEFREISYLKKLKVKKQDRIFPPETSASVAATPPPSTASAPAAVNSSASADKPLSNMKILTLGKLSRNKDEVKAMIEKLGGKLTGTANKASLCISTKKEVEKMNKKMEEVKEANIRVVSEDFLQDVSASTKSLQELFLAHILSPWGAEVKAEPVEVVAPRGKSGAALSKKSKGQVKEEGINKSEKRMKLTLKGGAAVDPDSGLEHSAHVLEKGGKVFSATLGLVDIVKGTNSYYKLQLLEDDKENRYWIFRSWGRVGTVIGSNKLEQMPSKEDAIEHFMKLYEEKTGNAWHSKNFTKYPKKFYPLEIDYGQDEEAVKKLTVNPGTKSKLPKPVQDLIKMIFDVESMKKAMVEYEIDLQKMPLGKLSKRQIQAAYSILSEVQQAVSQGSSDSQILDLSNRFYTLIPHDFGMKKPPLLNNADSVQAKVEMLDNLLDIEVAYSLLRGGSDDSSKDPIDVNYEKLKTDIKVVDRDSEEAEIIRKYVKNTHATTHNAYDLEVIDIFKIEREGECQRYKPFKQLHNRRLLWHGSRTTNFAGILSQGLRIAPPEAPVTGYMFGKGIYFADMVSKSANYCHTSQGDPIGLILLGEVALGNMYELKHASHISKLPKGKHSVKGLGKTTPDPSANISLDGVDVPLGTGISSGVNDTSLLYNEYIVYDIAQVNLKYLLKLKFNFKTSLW
Chain of proteins of HEK293T cells transiently overexpressing caspase-6 (Homo sapiens, UniProt Q00839) (Q00839 whole entry): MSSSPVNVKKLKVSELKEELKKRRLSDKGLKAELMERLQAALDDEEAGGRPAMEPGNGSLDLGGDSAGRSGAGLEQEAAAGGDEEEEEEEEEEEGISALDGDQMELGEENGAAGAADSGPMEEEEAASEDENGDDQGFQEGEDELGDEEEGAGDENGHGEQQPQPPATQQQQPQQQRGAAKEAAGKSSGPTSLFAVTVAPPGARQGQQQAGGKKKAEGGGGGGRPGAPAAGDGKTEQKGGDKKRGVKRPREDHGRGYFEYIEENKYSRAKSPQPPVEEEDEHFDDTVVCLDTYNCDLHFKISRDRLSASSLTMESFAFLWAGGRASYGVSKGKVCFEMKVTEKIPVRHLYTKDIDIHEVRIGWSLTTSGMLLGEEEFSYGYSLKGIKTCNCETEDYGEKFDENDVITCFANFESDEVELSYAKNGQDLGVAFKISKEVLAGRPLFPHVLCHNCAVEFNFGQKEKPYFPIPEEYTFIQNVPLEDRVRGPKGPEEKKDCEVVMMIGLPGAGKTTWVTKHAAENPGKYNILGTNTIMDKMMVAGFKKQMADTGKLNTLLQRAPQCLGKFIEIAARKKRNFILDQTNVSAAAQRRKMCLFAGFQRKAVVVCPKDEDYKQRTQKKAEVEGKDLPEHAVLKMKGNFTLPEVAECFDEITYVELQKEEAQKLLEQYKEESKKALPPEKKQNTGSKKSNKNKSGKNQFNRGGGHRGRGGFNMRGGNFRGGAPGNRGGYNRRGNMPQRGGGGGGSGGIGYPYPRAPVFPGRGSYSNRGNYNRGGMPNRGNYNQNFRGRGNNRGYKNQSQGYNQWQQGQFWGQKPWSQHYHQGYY
Chain of proteins of HEK293T cells transiently overexpressing caspase-6 (Homo sapiens, UniProt P21796) (P21796 whole entry): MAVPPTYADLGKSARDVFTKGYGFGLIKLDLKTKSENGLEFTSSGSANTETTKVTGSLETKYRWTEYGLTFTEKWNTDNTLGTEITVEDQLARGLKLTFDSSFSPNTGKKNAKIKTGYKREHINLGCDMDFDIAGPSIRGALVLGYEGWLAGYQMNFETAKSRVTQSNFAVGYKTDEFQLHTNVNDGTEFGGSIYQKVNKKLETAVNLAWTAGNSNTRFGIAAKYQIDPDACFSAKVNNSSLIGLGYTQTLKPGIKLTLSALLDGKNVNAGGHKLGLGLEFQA
Chain of proteins of HEK293T cells transiently overexpressing caspase-6 (Homo sapiens, UniProt P28838) (P28838 whole entry): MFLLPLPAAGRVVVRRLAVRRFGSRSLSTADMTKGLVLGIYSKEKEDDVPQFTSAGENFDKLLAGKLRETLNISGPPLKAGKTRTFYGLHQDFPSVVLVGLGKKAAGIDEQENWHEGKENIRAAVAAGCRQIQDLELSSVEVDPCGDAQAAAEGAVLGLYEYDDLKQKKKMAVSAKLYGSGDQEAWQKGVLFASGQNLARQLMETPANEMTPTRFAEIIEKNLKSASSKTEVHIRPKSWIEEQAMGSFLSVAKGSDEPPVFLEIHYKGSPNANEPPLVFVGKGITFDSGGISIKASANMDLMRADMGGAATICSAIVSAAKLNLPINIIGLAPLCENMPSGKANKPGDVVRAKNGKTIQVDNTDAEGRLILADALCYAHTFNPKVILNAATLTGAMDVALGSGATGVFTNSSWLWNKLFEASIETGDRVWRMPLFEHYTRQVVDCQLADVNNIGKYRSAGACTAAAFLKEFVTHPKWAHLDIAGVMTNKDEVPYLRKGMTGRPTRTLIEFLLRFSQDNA
Chain of proteins of HEK293T cells transiently overexpressing caspase-6 (Homo sapiens, UniProt P27348) (P27348 whole entry): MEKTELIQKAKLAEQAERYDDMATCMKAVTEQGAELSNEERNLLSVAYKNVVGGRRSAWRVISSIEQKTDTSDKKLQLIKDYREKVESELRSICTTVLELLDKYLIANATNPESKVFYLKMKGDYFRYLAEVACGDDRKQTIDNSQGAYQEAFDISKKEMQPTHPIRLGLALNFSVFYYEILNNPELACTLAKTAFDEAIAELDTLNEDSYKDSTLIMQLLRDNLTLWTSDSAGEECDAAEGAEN
Chain of proteins of HEK293T cells transiently overexpressing caspase-6 (Homo sapiens, UniProt P78371) (P78371 whole entry): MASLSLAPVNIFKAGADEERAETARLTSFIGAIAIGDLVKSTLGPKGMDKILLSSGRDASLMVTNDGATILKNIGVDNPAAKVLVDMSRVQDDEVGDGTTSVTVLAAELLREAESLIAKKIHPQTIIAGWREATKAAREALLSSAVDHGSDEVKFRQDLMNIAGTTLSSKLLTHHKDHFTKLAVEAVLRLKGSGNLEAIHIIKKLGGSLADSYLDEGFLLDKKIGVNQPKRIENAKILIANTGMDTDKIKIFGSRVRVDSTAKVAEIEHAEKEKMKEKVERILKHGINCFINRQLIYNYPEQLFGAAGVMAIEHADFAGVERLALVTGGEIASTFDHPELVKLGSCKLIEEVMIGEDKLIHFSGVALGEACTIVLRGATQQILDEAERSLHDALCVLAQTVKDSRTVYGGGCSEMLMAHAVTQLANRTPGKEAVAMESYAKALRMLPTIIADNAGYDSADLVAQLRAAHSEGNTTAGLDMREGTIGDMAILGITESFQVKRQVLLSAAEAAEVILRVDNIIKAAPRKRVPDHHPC
Chain of proteins of HEK293T cells transiently overexpressing caspase-6 (Homo sapiens, UniProt P43487) (P43487 whole entry): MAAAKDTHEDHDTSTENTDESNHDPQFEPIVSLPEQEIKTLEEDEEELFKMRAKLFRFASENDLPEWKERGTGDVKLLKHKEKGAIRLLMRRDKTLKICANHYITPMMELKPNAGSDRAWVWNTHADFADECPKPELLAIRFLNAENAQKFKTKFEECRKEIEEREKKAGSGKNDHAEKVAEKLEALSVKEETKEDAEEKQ
Chain of proteins of HEK293T cells transiently overexpressing caspase-6 (Homo sapiens, UniProt P61981) (P61981 whole entry): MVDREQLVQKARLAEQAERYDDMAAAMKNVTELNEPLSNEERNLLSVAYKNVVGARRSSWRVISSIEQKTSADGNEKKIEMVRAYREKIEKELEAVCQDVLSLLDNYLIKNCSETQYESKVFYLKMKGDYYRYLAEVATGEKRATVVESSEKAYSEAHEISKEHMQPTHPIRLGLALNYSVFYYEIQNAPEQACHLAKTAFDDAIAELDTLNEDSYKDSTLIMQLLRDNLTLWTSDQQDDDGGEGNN
Chain of proteins of HEK293T cells transiently overexpressing caspase-6 (Homo sapiens, UniProt P20700) (P20700 whole entry): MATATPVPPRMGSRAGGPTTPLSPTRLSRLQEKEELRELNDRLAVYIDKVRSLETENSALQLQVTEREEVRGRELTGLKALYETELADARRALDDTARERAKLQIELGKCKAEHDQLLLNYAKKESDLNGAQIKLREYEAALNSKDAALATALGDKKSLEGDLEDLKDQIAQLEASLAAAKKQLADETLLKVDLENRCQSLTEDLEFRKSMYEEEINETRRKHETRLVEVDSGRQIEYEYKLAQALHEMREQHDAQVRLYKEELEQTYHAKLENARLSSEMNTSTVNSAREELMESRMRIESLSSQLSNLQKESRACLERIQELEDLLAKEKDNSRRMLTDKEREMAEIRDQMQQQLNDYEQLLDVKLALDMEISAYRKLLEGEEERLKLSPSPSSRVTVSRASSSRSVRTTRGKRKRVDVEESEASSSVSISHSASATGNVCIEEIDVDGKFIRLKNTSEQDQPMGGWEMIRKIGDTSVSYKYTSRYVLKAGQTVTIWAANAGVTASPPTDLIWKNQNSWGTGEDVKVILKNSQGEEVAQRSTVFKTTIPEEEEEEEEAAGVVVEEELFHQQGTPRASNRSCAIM

SMILES: C#CCOc1ccc([C@@H]2C[C@@H](C(=O)Nc3ccc(OC(F)(F)F)cc3)CN(S(=O)(=O)C=C)C2)cc1 (relative stereo) [13-t]
- enrich.exp.med [1]: 0.7182
- enrich.exp.med ([2]; exp_ref Probe, analysis C6): 0.2769
- enrich.exp.med.lin [2]: 1.2116
- enrich.exp.med.log2 [2]: 0.2769
- enrich.exp.med [3]: -0.2652
- enrich.exp.med [4]: -1.18
- enrich.exp.med [5]: 0.7591
- enrich.exp.med [6]: 0.6337
- enrich.exp.med ([7]; exp_ref Probe, analysis C6): 0.3462
- enrich.exp.med.lin [7]: 1.2712
- enrich.exp.med.log2 [7]: 0.3462
- enrich.exp.med [8]: 0.3695
- enrich.exp.med [9]: 0.9191
- enrich.exp.med ([10]; exp_ref Probe, analysis C6): 0.3594
- enrich.exp.med.lin [10]: 1.283
- enrich.exp.med.log2 [10]: 0.3594
- enrich.exp.med [11]: -1.712
- enrich.exp.med ([12]; exp_ref Probe, analysis C6): 0.9895
- enrich.exp.med.lin [12]: 1.986
- enrich.exp.med.log2 [12]: 0.9895
- enrich.exp.med [13]: 0.2005
- enrich.exp.med [14]: 0.6812
- enrich.exp.med ([15]; exp_ref Probe, analysis C6): 0.5889
- enrich.exp.med.lin [15]: 1.5041
- enrich.exp.med.log2 [15]: 0.5889
- enrich.exp.med [16]: -0.45
